Tested on: Melanoma cell lines
Assay: Cell line testing, dose matrix, Example 3, melanoma panel
Format: cell-based
Settings: melanoma lines with activating NRAS mutation and BRAF mutants
Procedure: The combination of PI3K inhibitor COMPOUND A and MEK inhibitor COMPOUND B, as defined above, was tested across 38 cell lines from three tissue types (7 pancreas, 10 lung, and 21 melanoma). Each combination was tested in a partially-filled “dose matrix” constructed as follows: Each single drug was dispensed into growth media at a top concentration (11 μM for COMPOUND A or 2.7 μM for COMPOUND B), and serially diluted by 3× to yield a 7 point series covering a factor of 729 in concentration. The compounds were then combined at all pairs of the 2nd through the 6th concentrations, and this dose matrix was extended by also combining the top and bottom concentrations with each other. […] In order to identify cytotoxic treatments, we also determined “Day 0” cell populations at the start of drug treatment.
Cell responses at each treatment were measured using simple inhibitions I=1−T/V, where T is the treated well's raw response and V is the median untreated level between replicate wells on the plate. Cytotoxicity measurements were measured using a “Growth Inhibition” GI=1−(T−V0)/[T<V0? […] The “Synergy Score” SLoewe=ΣX,Y lnfX lnfY max(0,Idata) max(0,Idata−ILoewe) was calculated from the differences between the data Idata and the dose-additive surface ILoewe, across all combined concentrations X,Y, and weighted by the measured inhibition and the single agent dilution factors fX, fY. […]

Structure (SMILES): Cc1nc(NC(=O)N2CCC[C@H]2C(N)=O)sc1-c1ccnc(C(C)(C)C(F)(F)F)c1 [COMPOUND A, (S)-pyrrolidine-1,2-dicarboxylic acid 2-amide 1-({4-methyl-5-[2-(2,2,2-trifluoro-1,1-dimethyl-ethyl)-pyridin-4-yl]-thiazol-2-yl}-amide)]
- response as a single agent: weak responses

Reference: patent US9675595B2, “Synergistic combinations of PI3K- and MEK-inhibitors” (Novartis AG, priority 2011, dated 2017)
